Assay results taken from patent US20220194959A1, “CRYSTAL FORM OF EGFR INHIBITOR AND PREPARATION METHOD THEREOF” (MEDSHINE DISCOVERY INC., priority 2019, published 2022).

Legend:
Type in all cases: physicochemical
[1] = Water activity assay (stability of the crystal form in water with different activities); conditions: methanol/water, stirred two days, XRPD
Procedure: The stability of the crystal form in water with different activities was determined.
About 30 mg of the crystal form A of the compound of formula (II) was weighed and placed in a 1.5 mL liquid phase vial. A magnetic bar was added, and an appropriate amount of water activity agent in a system of methanol and water was pipetted into the liquid phase vial. The suspension sample was mixed well and then placed on a magnetic stirrer (25° C., 700 rpm). After stirring for two days, the wet sample was determined by XRPD.

[2] = Stability assay under illumination, high humidity, high temperature and acceleration (related substances and crystal form); parameters: Total impurity: unit not given here; conditions: for Change of crystal form: 17 days
Procedure: The stability of crystal form of the crystal form A and the crystal form C of the compound of formula (II) under the conditions of illumination, high humidity (92.5% RH), high temperature (60° C.) and acceleration (40° C./75% RH) was investigated.
Illumination test chamber, model: SHH-100GD-2, conditions: 5000±500 lux (visible light) and 90 mw/cm^2 (ultraviolet).
Electrothermal blowing dry box, model: GZX-9140MBE, conditions: 60° C.
Constant temperature and humidity chamber, model: LDS-800Y, conditions: 40° C./75% RH.
Constant temperature and humidity chamber, model: SHH-250SD, conditions: 25° C., 92.5% RH.
An appropriate amount of the crystal form A of the compound of formula (II) was weighed and placed in a dry and clean weighing bottle. The sample was spread into a thin layer, and fully exposed to assay conditions (60° C., 92.5% RH, illumination) and acceleration conditions (40° C./75% RH). After 17 days, the compound was taken out and determined for related substances and crystal form. […]

[3] = Solubility assay in media with different pHs; conditions: for Solubility (24 hours) / Solubility (2 hours): 37° C.; for Final pH: filtrate of saturated solution
Procedure: (§1) 9 parts of 4 mg of the crystal form A of the compound of formula (II) were weighed and added to a 1.5 mL sample bottle, respectively, and then 1 mL of different media (0.1 mol/L HCl, 0.01 mol/L HCl, pH3.8 buffer solution, pH4.5 buffer solution, pH5.5 buffer solution, pH6.0 buffer solution, pH6.8 buffer solution, pH7.4 buffer solution, and water) were added, respectively. Based on the dissolution situation, the raw material compound was continuously added until a saturated solution was formed. The magnetic bar was added to the above suspension, and the suspension was placed on a magnetic stirrer (37° C., protected from light) and stirred. […] The upper layer of the sample was filtered with a filter membrane, and the pH value of the filtrate was determined. The saturated solubility of the compound was determined by HPLC.
as §1, with “C” for “A”

[4] = Hygroscopicity study by dynamic vapor sorption (DVS)
Procedure: 1.4. Dynamic Vapor Sorption, DVS Method
Instrument model: SMS DVS Advantage dynamic vapor sorption apparatus
Test conditions: The sample (10 to 15 mg) is weighed and placed in a DVS sample pan for testing.
The detailed DVS parameters are as follows:
Equilibration: dm/dt=0.01%/min (The shortest time: 10 min, and the longest time: 180 min)
Drying: Dried for 120 min at 0% RH
RH (%) test gradient: 10%
Range of RH (%) test gradient: 0%-90%-0%
The classification of hygroscopicity evaluation is as follows:
10-15 mg of the crystal form A and the crystal form C of the compound of formula (II) were weighed and placed into a DVS sample pan for testing.

With COc1cc2ncnc(Nc3cccc(Cl)c3F)c2cc1N1CC2(CN(C)C2)OC1=O.Cc1ccc(S(=O)(=O)O)cc1 [crystal form A of the compound of formula (II)] the “Crystal form change in water activity assay” value ([1]; water activity 0.1 and 0.3, 25° C.) was “not changed”, the “Crystal form change in water activity assay” value ([1]; water activity greater than 0.3, 25° C.) was “changed to the crystal form C” and the “Stability compared with the crystal form D of the maleate of the compound of formula (I)” value [2] was “better”. For the same compound, the “Related substance at relative retention time 0.24” value ([2]; 40° C. - 75% RH - 17 days) was 0.03, the “Related substance at relative retention time 0.67” value ([2]; 40° C. - 75% RH - 17 days) was 0.16 and the “Related substance at relative retention time 0.88” value ([2]; 40° C. - 75% RH - 17 days) was 0.04. For the same compound, the “Related substance at relative retention time 0.92” value ([2]; 40° C. - 75% RH - 17 days) was 0.04, the “Related substance at relative retention time 1.24” value ([2]; 40° C. - 75% RH - 17 days) was 0.15 and the “Related substance at relative retention time 1.30” value ([2]; 40° C. - 75% RH - 17 days) was 0.18. For the same compound, the “Related substance at relative retention time 1.56” value ([2]; 40° C. - 75% RH - 17 days) was 0.04, the “Related substance at relative retention time 1.76” value ([2]; 40° C. - 75% RH - 17 days) was 0.04 and the Total impurity ([2]; 40° C. - 75% RH - 17 days) was 0.66. For the same compound, the “Related substance at relative retention time 0.24” value ([2]; 60° C. - 17 days) was 0.03, the “Related substance at relative retention time 0.67” value ([2]; 60° C. - 17 days) was 0.91 and the “Related substance at relative retention time 0.88” value ([2]; 60° C. - 17 days) was 0.05. For the same compound, the “Related substance at relative retention time 0.92” value ([2]; 60° C. - 17 days) was 0.03, the “Related substance at relative retention time 1.24” value ([2]; 60° C. - 17 days) was 0.15 and the “Related substance at relative retention time 1.30” value ([2]; 60° C. - 17 days) was 0.16. The “Related substance at relative retention time 1.56” value ([2]; 60° C. - 17 days) was 0.04, the “Related substance at relative retention time 1.76” value ([2]; 60° C. - 17 days) was 0.07 and the Total impurity ([2]; 60° C. - 17 days) was 1.44. For the same compound, the “Related substance at relative retention time 0.24” value ([2]; 92.5% RH - 17 days) was 0.03, the “Related substance at relative retention time 0.67” value ([2]; 92.5% RH - 17 days) was 0.05 and the “Related substance at relative retention time 0.88” value ([2]; 92.5% RH - 17 days) was 0.04. The “Related substance at relative retention time 0.92” value ([2]; 92.5% RH - 17 days) was 0.04, the “Related substance at relative retention time 1.24” value ([2]; 92.5% RH - 17 days) was 0.14 and the “Related substance at relative retention time 1.30” value ([2]; 92.5% RH - 17 days) was 0.18. The “Related substance at relative retention time 1.56” value ([2]; 92.5% RH - 17 days) was 0.04, the “Related substance at relative retention time 1.76” value ([2]; 92.5% RH - 17 days) was 0.02 and the Total impurity ([2]; 92.5% RH - 17 days) was 0.54. The “Related substance at relative retention time 0.24” value ([2]; Illumination - 17 days) was 0.03, the “Related substance at relative retention time 0.67” value ([2]; Illumination - 17 days) was 0.07 and the “Related substance at relative retention time 0.88” value ([2]; Illumination - 17 days) was 0.04. The “Related substance at relative retention time 0.92” value ([2]; Illumination - 17 days) was 0.05, the “Related substance at relative retention time 1.24” value ([2]; Illumination - 17 days) was 0.13 and the “Related substance at relative retention time 1.30” value ([2]; Illumination - 17 days) was 0.17. The “Related substance at relative retention time 1.56” value ([2]; Illumination - 17 days) was 0.04, the Total impurity ([2]; Illumination - 17 days) was 0.46 and the “Related substance at relative retention time 0.24” value ([2]; Initial sample) was 0.03. The “Related substance at relative retention time 0.67” value ([2]; Initial sample) was 0.05, the “Related substance at relative retention time 0.88” value ([2]; Initial sample) was 0.03 and the “Related substance at relative retention time 1.24” value ([2]; Initial sample) was 0.15. The “Related substance at relative retention time 1.30” value ([2]; Initial sample) was 0.18, the “Related substance at relative retention time 1.56” value ([2]; Initial sample) was 0.04 and the Total impurity ([2]; Initial sample) was 0.53. The “Change of crystal form” value ([2]; acceleration (40° C./75% RH)) was “not changed”, the “Change of crystal form” value ([2]; high humidity (92.5% RH)) was “changed” and the “Change of crystal form” value ([2]; high temperature (60° C.)) was “not changed”. For the same compound, the “Change of crystal form” value ([2]; illumination) was “not changed”, the “Formation of degradation impurity (conclusion)” value ([2]; illumination, high temperature, high humidity, acceleration) was “produces a degradation impurity only under the condition of high temperature” and the “Solubility (24 hours)” value ([3]; 0.01 mol/L HCl) was 7941 µg/mL. For the same compound, the “Solubility (conclusion)” value ([3]; buffer solutions below pH 6.8 and purified water) was “high solubility”, the “Final pH” value ([3]; 0.01 mol/L HCl) was 3.59 and the “Final pH” value ([3]; pH 3.8 buffer solution) was 3.988. The “Final pH” value ([3]; pH 4.5 buffer solution) was 4.531, the “Final pH” value ([3]; pH 5.5 buffer solution) was 5.499 and the “Final pH” value ([3]; pH 6.0 buffer solution) was 5.900. For the same compound, the “Final pH” value ([3]; pH 6.8 buffer solution) was 6.588, the “Final pH” value ([3]; pH 7.4 buffer solution) was 7.096 and the “Final pH” value ([3]; water) was 5.296. For the same compound, the “Evaluation of dissolution property” value ([3]; merged cell: 0.1 mol/L HCl, 0.01 mol/L HCl, pH 3.8, 4.5, 5.5, 6.0 buffer solutions and water) was “High solubility”, the “Evaluation of dissolution property” value ([3]; merged cell: pH 6.8 and pH 7.4 buffer solutions) was “Low solubility” and the “Solubility (2 hours)” value ([3]; pH 3.8 buffer solution) was 3749 µg/mL. For the same compound, the “Solubility (24 hours)” value ([3]; pH 3.8 buffer solution) was 3645 µg/mL, the “Solubility (2 hours)” value ([3]; pH 4.5 buffer solution) was 3824 µg/mL and the “Solubility (24 hours)” value ([3]; pH 4.5 buffer solution) was 3141 µg/mL. For the same compound, the “Solubility (2 hours)” value ([3]; pH 5.5 buffer solution) was 3571 µg/mL, the “Solubility (2 hours)” value ([3]; pH 6.0 buffer solution) was 3785 µg/mL and the “Solubility (24 hours)” value ([3]; pH 6.0 buffer solution) was 3638 µg/mL. The “Solubility (2 hours)” value ([3]; water) was 2720 µg/mL, the “ΔW (weight increase by moisture absorption)” value ([4]; 25° C. and 80% RH) was 1.329% and the Classification of hygroscopicity ([4]; 25° C., 80% RH) was “slightly hygroscopic”.
